Data on six molecules can be found in patent US20110230403A1, “GLYCOSIDE DERIVATIVES AND USES THEREOF” (NOVARTIS AG, priority 2008, published 2011).

Experiment [1] deals with T1, human sodium glucose cotransporter 2 (Homo sapiens, UniProt P31639).
T1 construct: expressed in transfected cells; host or cells: CHO-K1 (ATCC CCL-61) or HEK293 (ATCC CRL-1573), stably transfected with pZeoSV expression vector
T1 sequence (P31639 1-672): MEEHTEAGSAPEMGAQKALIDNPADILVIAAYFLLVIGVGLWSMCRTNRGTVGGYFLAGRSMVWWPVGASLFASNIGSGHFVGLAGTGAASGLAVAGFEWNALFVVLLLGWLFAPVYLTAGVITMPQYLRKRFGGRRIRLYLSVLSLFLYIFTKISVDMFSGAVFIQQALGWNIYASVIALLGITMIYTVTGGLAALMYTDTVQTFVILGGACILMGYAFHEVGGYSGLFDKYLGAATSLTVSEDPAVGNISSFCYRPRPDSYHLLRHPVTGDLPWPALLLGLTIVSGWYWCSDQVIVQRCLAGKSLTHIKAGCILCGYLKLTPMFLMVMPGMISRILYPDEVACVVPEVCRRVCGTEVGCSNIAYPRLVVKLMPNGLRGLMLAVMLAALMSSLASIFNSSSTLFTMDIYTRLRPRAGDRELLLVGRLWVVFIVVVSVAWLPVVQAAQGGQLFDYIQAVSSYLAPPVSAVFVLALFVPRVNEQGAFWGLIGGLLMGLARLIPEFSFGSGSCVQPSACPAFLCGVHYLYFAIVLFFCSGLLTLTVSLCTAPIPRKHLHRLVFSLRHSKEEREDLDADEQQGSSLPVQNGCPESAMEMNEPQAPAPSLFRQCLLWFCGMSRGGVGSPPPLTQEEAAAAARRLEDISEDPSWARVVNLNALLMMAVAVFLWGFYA
Put plainly: SGLT-2 assay: 14C-AMG uptake in CHO-hSGLT2 or HEK293-hSGLT2 cells. The format is cell-based. To be noted: n = 1-4, hSGLT2-transfected cells, read-out: SGLT2 IC50 nM (n = 1-4). On the procedure: These cell lines transport 14 C-labelled alpha-methyl-glucopyranoside (14 C-AMG, Amersham) into the interior of the cell in sodium-dependent manner.
The SGLT-2 assay is carried out as follows: CHO-hSGLT2 cells are cultivated in Ham's F12 Medium (BioWhittaker) with 10% foetal calf serum and 250 μg/mL zeocin (Invitrogen), and HEK293-hSGLT2 cells are cultivated in DMEM medium with 10% foetal calf serum and 250 μg/mL zeocin (Invitrogen). The cells are detached from the culture flasks by washing twice with PBS and subsequently treating with trypsin/EDTA. After the addition of cell culture medium the cells are centrifuged, resuspended in culture medium and counted in a Casy cell counter. Then 40,000 cells per well are seeded into a white, 96-well plate coated with poly-D-Iysine and incubated overnight at 37° C., 5% CO2. The cells are washenwice with 250 μl of assay buffer (Hanks Balanced Salt Solution, 137 mM NaCl, 5.4 mM KCl, 2.8 mM CaCl2, 1.2 mM MgSO4 and 10 mM HEPES (pH 7.4), 50 μg/mL of gentamycin). 250 μl of assay buffer and 5 μl of test compound are then added to each well and the plate is incubated for a further 15 minutes in the incubator. 5 μl of 10% DMSO are used as the negative control. The reaction is started by adding 5 μl of 14 C-AMG (0.05 μCi) to each well. After 2 hours' incubation at 37° C., 5% CO2, the cells are washed again with 250 μl of PBS (200C) and then lysed by the addition of 25 μl of 0.1 N NaOH (5 min. at 37° C.). 200 μl of MicroScint20 (Packard) are added to each well and incubation is continued for a further 20 min at 37° C. After this incubation the radioactivity of the 14 C-AMG absorbed is measured in a Topcount (Packard) using a 14 C scintillation program.

Another experiment addresses T2, human SGLT1 (Homo sapiens, UniProt P13866).
T2 construct: expressed in transfected cells; host or cells: CHO-K1 or HEK293 cells
T2 sequence (P13866 1-664): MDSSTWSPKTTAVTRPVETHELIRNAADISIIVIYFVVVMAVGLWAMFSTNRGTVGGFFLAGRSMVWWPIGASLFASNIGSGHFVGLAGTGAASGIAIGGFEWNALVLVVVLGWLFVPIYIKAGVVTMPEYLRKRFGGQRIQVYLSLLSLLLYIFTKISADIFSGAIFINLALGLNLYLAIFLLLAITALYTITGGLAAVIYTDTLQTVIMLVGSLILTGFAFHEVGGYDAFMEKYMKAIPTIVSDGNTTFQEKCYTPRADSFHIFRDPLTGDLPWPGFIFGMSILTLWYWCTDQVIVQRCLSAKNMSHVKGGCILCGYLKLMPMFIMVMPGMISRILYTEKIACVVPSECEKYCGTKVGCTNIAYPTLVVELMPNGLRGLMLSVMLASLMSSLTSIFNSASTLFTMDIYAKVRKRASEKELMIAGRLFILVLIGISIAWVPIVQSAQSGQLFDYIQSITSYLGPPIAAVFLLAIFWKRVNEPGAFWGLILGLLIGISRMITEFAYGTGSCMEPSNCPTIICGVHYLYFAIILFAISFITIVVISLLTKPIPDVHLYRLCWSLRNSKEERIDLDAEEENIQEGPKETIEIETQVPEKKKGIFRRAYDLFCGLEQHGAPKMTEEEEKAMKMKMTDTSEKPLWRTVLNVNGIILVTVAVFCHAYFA
Put plainly: hSGLT1 assay: analogous [14C]-AMG uptake in CHO-K1 or HEK293 cells expressing hSGLT1. To be noted: n = 1-4, hSGLT1-transfected cells. The format is cell-based. On the procedure:
To determine human SGLT1 inhibitory activity, an analogous test was set up in which the cDNA for hSGLTI (Genbank Ace. No. NM000343) instead of hSGLT2 cDNA is expressed in CHO-K1 or HEK293 cells. The uptake assay buffer in the case of the hSGLT1 assay contains 10 mM HEPES, 5 mM Tris, 140 mM NaCl, 2 mM KCl, 1 mM CaCl2, and 1 mM MgCl2, pH 7.4 containing 0.5 mM of α-methyl-D-glucopyranoside (AMG), 10 μM of [^14C]-α-methyl-D-glucopyranoside and different inhibitor concentrations.

Structures are written as SMILES. Bounds are passed on as bounds.

For `CCOc1ccc(Cc2cc([C@@H]3O[C@H](CSc4cc(C(=O)N5CCC5)ccc4F)[C@@H](O)[C@H](O)[C@H]3O)ccc2Cl)cc1` [Example 37, Azetidin-1-yl-(3-{(2S,3S,4R,5R,6S)-6-[4-chloro-3-(4-ethoxy-benzyl)-phenyl]-3,4,5-trihydroxy-tetrahydro-pyran-2-ylmethylsulfanyl}-4-fluoro-phenyl)-methanone], the IC50 (commonly the concentration needed to halve the response being measured) in experiment [1] was 3 nM; at human SGLT1 it was < 50 nM.
The corresponding values for `CCOc1ccc(Cc2cc([C@@H]3O[C@H](CSc4cccc(C(=O)NC)c4)[C@@H](O)[C@H](O)[C@H]3O)ccc2Cl)cc1` [Example 40, 3-{(2S,3S,4R,5R,6S)-6-[4-Chloro-3-(4-ethoxy-benzyl)-phenyl]-3,4,5-trihydroxy-tetrahydro-pyran-2-ylmethylsulfanyl}-N-methyl-benzamide] are 13 nM and < 50 nM.
The corresponding values for `CCOc1ccc(Cc2cc([C@@H]3O[C@H](CSc4cccc(C(=O)N5CCCC5)c4)[C@@H](O)[C@H](O)[C@H]3O)ccc2Cl)cc1` [Example 47, (3-{(2S,3S,4R,5R,6S)-6-[4-Chloro-3-(4-ethoxy-benzyl)-phenyl]-3,4,5-trihydroxy-tetrahydro-pyran-2-ylmethylsulfanyl}-phenyl)-pyrrolidin-1 yl-methanone] are 14 nM and < 50 nM.
On the same counts, the results for `CCOc1ccc(Cc2cc([C@@H]3O[C@H](CSc4cccc(C(=O)N(C)C)c4)[C@@H](O)[C@H](O)[C@H]3O)ccc2Cl)cc1` [Example 50, 3-{(2S,3S,4R,5R,6S)-6-[4-Chloro-3-(4-ethoxy-benzyl)-phenyl]-3,4,5-trihydroxy-tetrahydro-pyran-2-ylmethylsulfanyl}-N,N-dimethyl-benzamide] are 8 nM and < 50 nM.
Regarding `CCOc1ccc(Cc2cc([C@@H]3O[C@H](CSc4cccc(C(N)=O)c4)[C@@H](O)[C@H](O)[C@H]3O)ccc2Cl)cc1` [Example 78, 3-{(2S,3S,4R,5R,6S)-6-[4-Chloro-3-(4-ethoxy-benzyl)-phenyl]-3,4,5-trihydroxy-tetrahydro-pyran-2-ylmethylsulfanyl}-benzamide], the half-inhibitory concentration (IC50) was 42 nM in experiment [1] and < 100 nM against human SGLT1.
On the same counts, the results for `CCOc1ccc(Cc2cc([C@@H]3O[C@H](CSc4cccc(NC(C)=O)c4)[C@@H](O)[C@H](O)[C@H]3O)ccc2Cl)cc1` [Example 80, N-(3-{(2S,3S,4R,5R,6S)-6-[4-Chloro-3-(4-ethoxy-benzyl)-phenyl]-3,4,5-trihydroxy-tetrahydro-pyran-2-ylmethylsulfanyl}-phenyl)-acetamide] are 13 nM and < 100 nM.
